# In ChEMBL document CHEMBL4507320, “Data for DCP probe NVS-MALT1” (2021):
# What was measured:
# [1] = molecular target: Ephrin type-A receptor 1 (Homo sapiens) (UniProt P21709); settings: Compound concentration 1000.0 nM
# [2] = molecular target: Testis-specific serine/threonine-protein kinase 3 (Homo sapiens) (UniProt Q96PN8); settings: Compound concentration 1000.0 nM
# [3] = molecular target: Myosin light chain kinase (Homo sapiens) (UniProt Q32MK0); settings: Compound concentration 1000.0 nM
# [4] = test system: Proto-oncogene tyrosine-protein kinase receptor Ret (Homo sapiens), P07949 [M918T]; settings: Compound concentration 1000.0 nM
# [5] = molecular target: Mitogen-activated protein kinase kinase kinase 2 (Homo sapiens) (UniProt Q9Y2U5); settings: Compound concentration 1000.0 nM
# [6] = molecular target: Serine/threonine-protein kinase Chk2 (Homo sapiens) (UniProt O96017); settings: Compound concentration 1000.0 nM
# [7] = molecular target: Proto-oncogene tyrosine-protein kinase Src (Homo sapiens) (UniProt P12931); settings: Compound concentration 1000.0 nM
# [8] = molecular target: Dual specificity mitogen-activated protein kinase kinase 5 (Homo sapiens) (UniProt Q13163); settings: Compound concentration 1000.0 nM
# [9] = molecular target: Tyrosine-protein kinase ABL1 (Homo sapiens) (UniProt P00519); settings: Compound concentration 1000.0 nM
# [10] = molecular target: Ribosomal protein S6 kinase beta-1 (Homo sapiens) (UniProt P23443); settings: Compound concentration 1000.0 nM
# [11] = molecular target: Serine/threonine-protein kinase PRP4 homolog (Homo sapiens) (UniProt Q13523); settings: Compound concentration 1000.0 nM
# [12] = molecular target: Macrophage colony-stimulating factor 1 receptor (Homo sapiens) (UniProt P07333); settings: Compound concentration 1000.0 nM
# [13] = molecular target: Muscarinic acetylcholine receptor M3 (Homo sapiens) (UniProt P20309); settings: Compound concentration 10.0 uM
# [14] = molecular target: NUAK family SNF1-like kinase 2 (Homo sapiens) (UniProt Q9H093); settings: Compound concentration 1000.0 nM
# [15] = molecular target: Calcium/calmodulin-dependent protein kinase type 1 (Homo sapiens) (UniProt Q14012); settings: Compound concentration 1000.0 nM
# [16] = molecular target: Serine/threonine-protein kinase pim-3 (Homo sapiens) (UniProt Q86V86); settings: Compound concentration 1000.0 nM
# [17] = molecular target: Cyclin-dependent kinase-like 1 (Homo sapiens) (UniProt Q00532); settings: Compound concentration 1000.0 nM
# [18] = molecular target: Inhibitor of nuclear factor kappa-B kinase subunit alpha (Homo sapiens) (UniProt O15111); settings: Compound concentration 1000.0 nM
# [19] = molecular target: Mitogen-activated protein kinase 11 (Homo sapiens) (UniProt Q15759); settings: Compound concentration 1000.0 nM
# [20] = test system: Mast/stem cell growth factor receptor Kit (Homo sapiens), P10721 [V559D,V654A]; settings: Compound concentration 1000.0 nM
# [21] = molecular target: Sodium-dependent serotonin transporter (Homo sapiens) (UniProt P31645); settings: Compound concentration 10.0 uM
# [22] = molecular target: Serine/threonine-protein kinase RIO2 (Homo sapiens) (UniProt Q9BVS4); settings: Compound concentration 1000.0 nM
# [23] = molecular target: SRSF protein kinase 2 (Homo sapiens) (UniProt P78362); settings: Compound concentration 1000.0 nM
# [24] = molecular target: Dual specificity mitogen-activated protein kinase kinase 2 (Homo sapiens) (UniProt P36507); settings: Compound concentration 1000.0 nM
# [25] = molecular target: Receptor-interacting serine/threonine-protein kinase 1 (Homo sapiens) (UniProt Q13546); settings: Compound concentration 1000.0 nM
# [26] = molecular target: Homeodomain-interacting protein kinase 1 (Homo sapiens) (UniProt Q86Z02); settings: Compound concentration 1000.0 nM
# [27] = molecular target: cAMP-dependent protein kinase catalytic subunit beta (Homo sapiens) (UniProt P22694); settings: Compound concentration 1000.0 nM
# [28] = test system: Epidermal growth factor receptor (Homo sapiens), P00533 [UNDEFINED MUTATION]; settings: Compound concentration 1000.0 nM
# [29] = molecular target: Serine/threonine-protein kinase PAK 2 (Homo sapiens) (UniProt Q13177); settings: Compound concentration 1000.0 nM
# [30] = molecular target: Tyrosine-protein kinase TXK (Homo sapiens) (UniProt P42681); settings: Compound concentration 1000.0 nM
# [31] = molecular target: Mitogen-activated protein kinase kinase kinase 10 (Homo sapiens) (UniProt Q02779); settings: Compound concentration 1000.0 nM
# [32] = molecular target: Sigma intracellular receptor 2 (Homo sapiens, UniProt Q5BJF2); settings: Compound concentration 10.0 uM
# [33] = molecular target: Phosphatidylinositol 4,5-bisphosphate 3-kinase catalytic subunit gamma isoform (Homo sapiens) (UniProt P48736); settings: Compound concentration 1000.0 nM
# [34] = molecular target: cAMP-dependent protein kinase catalytic subunit alpha (Homo sapiens) (UniProt P17612); settings: Compound concentration 1000.0 nM
# [35] = molecular target: 5'-AMP-activated protein kinase catalytic subunit alpha-1 (Homo sapiens) (UniProt Q13131); settings: Compound concentration 1000.0 nM
# [36] = molecular target: Serine/threonine-protein kinase RIO1 (Homo sapiens) (UniProt Q9BRS2); settings: Compound concentration 1000.0 nM
# [37] = molecular target: Serine/threonine-protein kinase D2 (Homo sapiens) (UniProt Q9BZL6); settings: Compound concentration 1000.0 nM
# [38] = test system: Tyrosine-protein kinase ABL1 (Homo sapiens), P00519 [T315I]; settings: Compound concentration 1000.0 nM
# [39] = molecular target: Bone morphogenetic protein receptor type-1B (Homo sapiens) (UniProt O00238); settings: Compound concentration 1000.0 nM
# [40] = molecular target: Casein kinase I isoform epsilon (Homo sapiens) (UniProt P49674); settings: Compound concentration 1000.0 nM
# [41] = molecular target: Ankyrin repeat and protein kinase domain-containing protein 1 (Homo sapiens) (UniProt Q8NFD2); settings: Compound concentration 1000.0 nM
# [42] = molecular target: Ribosomal protein S6 kinase alpha-6 (Homo sapiens) (UniProt Q9UK32); settings: Compound concentration 1000.0 nM
# [43] = test system: Mast/stem cell growth factor receptor Kit (Homo sapiens), P10721 [L576P]; settings: Compound concentration 1000.0 nM
# [44] = molecular target: Aurora kinase C (Homo sapiens) (UniProt Q9UQB9); settings: Compound concentration 1000.0 nM
# [45] = molecular target: cGMP-dependent protein kinase 1 (Homo sapiens) (UniProt Q13976); settings: Compound concentration 1000.0 nM
# Sequence of Testis-specific serine/threonine-protein kinase 3 (Homo sapiens) (Q96PN8 whole entry): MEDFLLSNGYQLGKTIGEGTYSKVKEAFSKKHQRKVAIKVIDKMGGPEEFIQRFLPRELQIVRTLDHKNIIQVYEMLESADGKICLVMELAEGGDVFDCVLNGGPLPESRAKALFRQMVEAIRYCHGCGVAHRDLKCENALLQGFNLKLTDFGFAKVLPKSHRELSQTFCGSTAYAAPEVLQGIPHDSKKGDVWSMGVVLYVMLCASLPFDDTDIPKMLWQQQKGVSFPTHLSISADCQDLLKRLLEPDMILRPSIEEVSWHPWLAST
# Sequence of Serine/threonine-protein kinase Chk2 (Homo sapiens) (O96017 whole entry): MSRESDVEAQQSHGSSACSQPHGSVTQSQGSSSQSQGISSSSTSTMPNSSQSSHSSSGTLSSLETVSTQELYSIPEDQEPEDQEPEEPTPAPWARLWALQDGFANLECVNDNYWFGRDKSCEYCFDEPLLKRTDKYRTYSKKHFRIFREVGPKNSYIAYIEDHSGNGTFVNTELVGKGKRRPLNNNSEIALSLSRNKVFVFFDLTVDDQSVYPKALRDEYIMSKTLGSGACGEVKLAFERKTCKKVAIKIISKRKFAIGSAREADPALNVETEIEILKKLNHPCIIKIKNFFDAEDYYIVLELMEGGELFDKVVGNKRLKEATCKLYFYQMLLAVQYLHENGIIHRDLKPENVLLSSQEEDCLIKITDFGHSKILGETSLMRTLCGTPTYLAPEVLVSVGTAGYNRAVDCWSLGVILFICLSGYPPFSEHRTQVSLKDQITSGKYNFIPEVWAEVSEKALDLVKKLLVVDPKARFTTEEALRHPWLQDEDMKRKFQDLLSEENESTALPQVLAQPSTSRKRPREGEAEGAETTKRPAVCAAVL
# Sequence of Homeodomain-interacting protein kinase 1 (Homo sapiens) (Q86Z02 whole entry, looked up): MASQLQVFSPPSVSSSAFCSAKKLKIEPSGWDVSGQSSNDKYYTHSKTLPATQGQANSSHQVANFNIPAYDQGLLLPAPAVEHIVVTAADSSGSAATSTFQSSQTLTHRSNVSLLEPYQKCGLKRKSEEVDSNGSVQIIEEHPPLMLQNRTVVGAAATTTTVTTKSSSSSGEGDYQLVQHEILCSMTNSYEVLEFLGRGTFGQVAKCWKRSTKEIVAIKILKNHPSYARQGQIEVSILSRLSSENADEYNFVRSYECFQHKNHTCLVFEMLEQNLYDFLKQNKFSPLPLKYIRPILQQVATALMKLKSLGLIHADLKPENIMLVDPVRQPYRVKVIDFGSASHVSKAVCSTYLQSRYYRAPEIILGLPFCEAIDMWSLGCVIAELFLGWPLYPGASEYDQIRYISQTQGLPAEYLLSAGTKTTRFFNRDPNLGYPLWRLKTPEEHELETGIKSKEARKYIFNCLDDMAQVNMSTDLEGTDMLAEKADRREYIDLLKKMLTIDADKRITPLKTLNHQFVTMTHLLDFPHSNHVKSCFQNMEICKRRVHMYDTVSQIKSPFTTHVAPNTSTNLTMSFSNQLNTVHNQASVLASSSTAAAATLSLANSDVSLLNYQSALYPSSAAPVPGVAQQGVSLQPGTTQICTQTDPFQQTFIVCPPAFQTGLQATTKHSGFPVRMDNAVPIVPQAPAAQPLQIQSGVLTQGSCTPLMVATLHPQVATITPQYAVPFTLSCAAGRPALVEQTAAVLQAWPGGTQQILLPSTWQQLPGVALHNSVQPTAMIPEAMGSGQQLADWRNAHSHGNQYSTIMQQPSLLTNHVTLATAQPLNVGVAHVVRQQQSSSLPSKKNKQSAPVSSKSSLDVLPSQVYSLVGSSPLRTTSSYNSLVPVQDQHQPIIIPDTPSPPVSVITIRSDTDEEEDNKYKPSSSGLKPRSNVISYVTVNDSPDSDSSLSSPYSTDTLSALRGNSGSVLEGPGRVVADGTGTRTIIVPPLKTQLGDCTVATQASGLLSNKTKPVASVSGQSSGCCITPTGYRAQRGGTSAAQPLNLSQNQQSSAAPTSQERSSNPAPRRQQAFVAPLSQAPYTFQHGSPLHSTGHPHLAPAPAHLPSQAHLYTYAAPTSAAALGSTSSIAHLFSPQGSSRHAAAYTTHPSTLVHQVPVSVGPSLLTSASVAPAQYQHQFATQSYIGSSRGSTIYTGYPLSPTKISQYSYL
# Sequence of Phosphatidylinositol 4,5-bisphosphate 3-kinase catalytic subunit gamma isoform (Homo sapiens) (P48736 whole entry, looked up, canonical isoform): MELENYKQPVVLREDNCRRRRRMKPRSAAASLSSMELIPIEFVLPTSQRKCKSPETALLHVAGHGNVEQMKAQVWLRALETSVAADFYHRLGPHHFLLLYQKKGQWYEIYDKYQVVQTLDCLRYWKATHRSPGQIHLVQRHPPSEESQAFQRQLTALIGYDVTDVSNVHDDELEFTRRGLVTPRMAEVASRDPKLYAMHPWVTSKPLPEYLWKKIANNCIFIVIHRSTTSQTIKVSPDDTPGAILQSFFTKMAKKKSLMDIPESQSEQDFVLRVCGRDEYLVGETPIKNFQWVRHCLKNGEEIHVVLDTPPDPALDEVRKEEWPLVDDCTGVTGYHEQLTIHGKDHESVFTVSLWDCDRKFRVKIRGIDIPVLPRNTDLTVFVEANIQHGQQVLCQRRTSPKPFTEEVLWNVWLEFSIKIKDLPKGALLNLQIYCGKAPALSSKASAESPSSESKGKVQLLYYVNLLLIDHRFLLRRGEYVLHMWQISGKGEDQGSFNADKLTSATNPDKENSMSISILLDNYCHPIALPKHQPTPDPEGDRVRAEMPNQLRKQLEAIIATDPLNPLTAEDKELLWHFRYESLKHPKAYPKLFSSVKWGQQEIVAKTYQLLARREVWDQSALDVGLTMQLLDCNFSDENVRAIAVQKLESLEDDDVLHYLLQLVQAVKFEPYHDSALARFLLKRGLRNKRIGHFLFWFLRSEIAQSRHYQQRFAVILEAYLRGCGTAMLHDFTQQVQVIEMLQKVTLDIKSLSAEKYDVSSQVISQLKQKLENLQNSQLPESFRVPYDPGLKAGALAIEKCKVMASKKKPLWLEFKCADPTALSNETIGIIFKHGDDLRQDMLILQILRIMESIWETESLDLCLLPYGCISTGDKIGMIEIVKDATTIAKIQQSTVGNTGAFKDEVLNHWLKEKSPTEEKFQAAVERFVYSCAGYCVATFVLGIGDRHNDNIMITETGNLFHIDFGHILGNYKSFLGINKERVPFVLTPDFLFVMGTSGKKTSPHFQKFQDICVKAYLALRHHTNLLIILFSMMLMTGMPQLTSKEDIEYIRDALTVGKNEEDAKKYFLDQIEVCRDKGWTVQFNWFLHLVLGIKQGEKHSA
# Sequence of Serine/threonine-protein kinase RIO1 (Homo sapiens) (Q9BRS2 whole entry): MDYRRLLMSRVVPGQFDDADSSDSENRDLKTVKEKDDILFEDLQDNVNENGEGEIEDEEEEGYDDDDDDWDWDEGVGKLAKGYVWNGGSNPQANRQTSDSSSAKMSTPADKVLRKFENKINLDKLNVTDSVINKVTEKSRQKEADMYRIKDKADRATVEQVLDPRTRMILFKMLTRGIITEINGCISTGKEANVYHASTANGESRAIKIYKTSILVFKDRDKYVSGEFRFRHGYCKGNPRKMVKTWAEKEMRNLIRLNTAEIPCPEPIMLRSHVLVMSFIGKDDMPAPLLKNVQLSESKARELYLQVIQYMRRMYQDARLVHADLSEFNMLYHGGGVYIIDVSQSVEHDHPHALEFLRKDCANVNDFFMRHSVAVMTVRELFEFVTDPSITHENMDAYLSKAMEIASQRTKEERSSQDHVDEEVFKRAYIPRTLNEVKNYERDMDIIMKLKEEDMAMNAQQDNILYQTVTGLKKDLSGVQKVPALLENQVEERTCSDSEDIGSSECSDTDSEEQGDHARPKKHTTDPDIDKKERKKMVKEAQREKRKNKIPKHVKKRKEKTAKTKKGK
# Sequence of Proto-oncogene tyrosine-protein kinase receptor Ret (Homo sapiens), P07949 [M918T] (P07949 whole entry M918T): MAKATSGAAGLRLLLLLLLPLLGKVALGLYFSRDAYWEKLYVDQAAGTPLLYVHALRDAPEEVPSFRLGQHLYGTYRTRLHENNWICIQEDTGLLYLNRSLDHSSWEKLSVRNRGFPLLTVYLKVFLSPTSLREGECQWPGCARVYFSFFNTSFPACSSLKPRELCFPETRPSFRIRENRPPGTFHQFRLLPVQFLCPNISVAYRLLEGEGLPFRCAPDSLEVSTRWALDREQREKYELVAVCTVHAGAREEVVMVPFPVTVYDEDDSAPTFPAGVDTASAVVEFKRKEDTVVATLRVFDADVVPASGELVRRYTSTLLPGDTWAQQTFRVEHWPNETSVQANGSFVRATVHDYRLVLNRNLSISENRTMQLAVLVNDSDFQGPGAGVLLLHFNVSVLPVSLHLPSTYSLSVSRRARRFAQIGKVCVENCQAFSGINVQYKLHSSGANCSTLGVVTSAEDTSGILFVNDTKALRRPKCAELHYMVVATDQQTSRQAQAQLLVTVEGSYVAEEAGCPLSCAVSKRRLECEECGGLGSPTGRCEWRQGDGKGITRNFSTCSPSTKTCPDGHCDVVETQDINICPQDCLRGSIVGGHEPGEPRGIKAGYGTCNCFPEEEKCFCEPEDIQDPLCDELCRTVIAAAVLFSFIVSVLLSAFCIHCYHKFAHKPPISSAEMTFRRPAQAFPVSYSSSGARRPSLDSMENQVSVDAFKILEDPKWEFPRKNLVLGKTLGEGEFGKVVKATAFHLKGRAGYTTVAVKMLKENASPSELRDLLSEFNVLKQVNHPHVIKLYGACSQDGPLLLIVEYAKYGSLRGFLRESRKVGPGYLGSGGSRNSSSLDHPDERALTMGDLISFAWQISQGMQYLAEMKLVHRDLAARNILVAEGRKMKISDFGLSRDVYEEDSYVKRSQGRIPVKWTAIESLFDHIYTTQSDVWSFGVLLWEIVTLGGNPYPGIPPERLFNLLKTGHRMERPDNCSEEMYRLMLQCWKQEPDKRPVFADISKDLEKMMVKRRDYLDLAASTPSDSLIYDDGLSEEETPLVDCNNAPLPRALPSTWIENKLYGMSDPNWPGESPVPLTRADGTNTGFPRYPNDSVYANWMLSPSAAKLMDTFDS
# Sequence of Sigma intracellular receptor 2 (Q5BJF2 whole entry, canonical isoform): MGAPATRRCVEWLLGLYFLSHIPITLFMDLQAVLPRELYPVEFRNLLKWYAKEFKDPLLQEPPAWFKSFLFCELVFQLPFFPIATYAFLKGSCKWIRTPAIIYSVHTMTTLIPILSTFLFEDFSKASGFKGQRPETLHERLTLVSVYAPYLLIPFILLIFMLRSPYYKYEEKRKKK
structure (smiles),measurement,setting,value
CO[C@@H](C)c1c(Nc2ccc([C@@H](N(C)C(=O)C3CCS(=O)(=O)CC3)C(F)(F)F)cc2)cnc2cc(Cl)nn12 [NVS-MALT1-C],residual activity,[1],97%
same,residual activity,[2],79%
same,residual activity,[3],87%
same,residual activity,[4],85%
same,residual activity,[5],100%
same,residual activity,[6],100%
same,residual activity,[7],98%
same,residual activity,[8],91%
same,residual activity,[9],59%
same,residual activity,[10],90%
same,residual activity,[11],91%
same,residual activity,[12],88%
same,inhibition,[13],-2.58%
same,residual activity,[14],100%
same,residual activity,[15],82%
same,residual activity,[16],97%
same,residual activity,[17],74%
same,residual activity,[18],100%
same,residual activity,[19],86%
same,residual activity,[20],88%
same,inhibition,[21],14.6%
same,residual activity,[22],89%
same,residual activity,[23],99%
same,residual activity,[24],97%
same,residual activity,[25],84%
same,residual activity,[26],56%
same,residual activity,[27],89%
same,residual activity,[28],100%
same,residual activity,[29],81%
same,residual activity,[30],84%
same,residual activity,[31],77%
same,inhibition,[32],57.1%
same,residual activity,[33],87%
same,residual activity,[34],87%
same,residual activity,[35],92%
same,residual activity,[36],91%
same,residual activity,[37],86%
same,residual activity,[38],78%
same,residual activity,[39],100%
same,residual activity,[40],59%
same,residual activity,[41],100%
same,residual activity,[42],98%
same,residual activity,[43],100%
same,residual activity,[44],85%
same,residual activity,[45],92%
CO[C@@H](C)c1c(Nc2ccc([C@H](N(C)C(=O)C3CCS(=O)(=O)CC3)C(F)(F)F)cc2)cnc2cc(Cl)nn12 [NVS-MALT1],residual activity,[1],100%
same,residual activity,[2],81%
same,residual activity,[3],84%
same,residual activity,[4],95%
same,residual activity,[5],100%
same,residual activity,[6],90%
same,residual activity,[7],99%
same,residual activity,[8],60%
same,residual activity,[9],59%
same,residual activity,[10],100%
same,residual activity,[11],100%
same,residual activity,[12],95%
same,inhibition,[13],-8.44%
same,residual activity,[14],100%
same,residual activity,[15],66%
same,residual activity,[16],86%
same,residual activity,[17],57%
same,residual activity,[18],100%
same,residual activity,[19],79%
same,residual activity,[20],92%
same,inhibition,[21],11.3%
same,residual activity,[22],90%
same,residual activity,[23],100%
same,residual activity,[24],96%
same,residual activity,[25],91%
same,residual activity,[26],40%
same,residual activity,[27],81%
same,residual activity,[28],100%
same,residual activity,[29],76%
same,residual activity,[30],87%
same,residual activity,[31],71%
same,inhibition,[32],49.1%
same,residual activity,[33],83%
same,residual activity,[34],90%
same,residual activity,[35],99%
same,residual activity,[36],85%
same,residual activity,[37],83%
same,residual activity,[38],87%
same,residual activity,[39],100%
same,residual activity,[40],66%
same,residual activity,[41],100%
same,residual activity,[42],91%
same,residual activity,[43],98%
same,residual activity,[44],77%
same,residual activity,[45],85%
